US12495801B2, “Bacillus subtilis JCK-1398 strain inducing resistance in various plants, and composition and method for controlling pine wilt disease by using same” (Republic of Korea (National institute of forest science), priority 2020, dated 2025)

Tests used:
Assay type in all cases: in vivo
[1] = system: Xanthomonas euvesicatoria; experiment: Control effect against bacterial spot on chili pepper plants; conditions: control agrochemical, 1,000-fold diluted solution
Experimental: To 500-fold and 5,000-fold diluted solutions of a spray-dried powder of the JCK-1398 strain prepared by the same method as in Example 8 were added the surfactant Tween® 20 (250 μg/ml), and then 8- to 9-leaf stage chili pepper plants (Hungnong Seed, Bultap chili pepper) were treated with the resultant solutions at 20 ml per pot by soil drenching and foliar spraying. Each sample was applied 4 days before inoculation with Xanthomonas euvesicatoria inoculum. As for a control group, the synthetic agrochemical pesticides Sungbocycline wettable powder (oxytetracycline, SUNGBO Chemicals) and Ilpum wettable powder (oxolinic acid 20% WP, Dongbang Agro) each were applied at a predetermined amount (1,000-fold diluted solution), and as for an untreated group, only Tween® 20 (250 μg/ml) was applied in the same manner without chemical agents.
Then, Xanthomonas euvesicatoria was subjected to static culture in TSA at 30° C. for about 48 hours, and then the cells were harvested using 2 ml of sterile water. The inoculum was prepared by diluting the harvested Xanthomonas euvesicatoria to an optical density value of 0.1 at 600 nm through a UV spectrometer. […]
Each treatment was repeated three times, and each experiment was repeated twice. The disease severity was determined using an index of 0 to 6 according to Abbasi, and thus the severity of bacterial spot formed on chili pepper leaves was investigated. […]

[2] = system: Bursaphelenchus xylophilus; experiment: Pine wilt disease seedling test of aerial spraying formulations (Example 11); conditions: EB control group; 40 days after inoculation
Experimental: In order to investigate the control effects of the Bacillus subtilis JCK-1398 strain against pine wilt disease through aerial spraying in adult trees, a novel formulation was prepared. The JCK-1398 10% SC formulation was formulated with a composition of a spray-dried powder of JCK-1398 (10.0%), CR-NF 135B (3.0%), xanthan gum (0.01%), a defoamer (0.1%), propylene glycol (5.0%), sodium benzoate (0.2%), and water (81.69%).
The JCK-1398 10% SC formulation and the JCK-1398 20% SC formulation (existing formulation, Example 9) each were prepared into 10-fold, 100-fold, and 500-fold diluted solutions, and each pine tree aged 3 years was foliar-sprayed with 100 μl ( 1/50 of the existing treatment amount) of each of the diluted solutions twice at an interval of 7 days, 2 weeks and 1 week before inoculation. Last, the inoculation with Bursaphelenchus xylophilus was performed 7 days after the second treatment with the diluted solution by the same method as in Example 4-4, and the degree of wilting was determined 40 days after the inoculation with Bursaphelenchus xylophilus.

[3] = system: Bursaphelenchus xylophilus; experiment: Pine wilt disease field tests, Pinus densiflora adult trees aged 15 years (Example 9); conditions: for Disease severity (%): adult trees, JCK-1398 = 50-fold diluted spray-dried powder foliar spray, EB = A-Pharm trunk injection; for Control value (%): foliar spray, EB by trunk injection
Experimental: Based on the above results, the field test was additionally performed using Pinus densiflora adult trees aged 15 years (root diameter: 8-11 cm, height: 6-8 m) in order to investigate the control effect of the Bacillus subtilis JCK-1398 strain against pine wilt disease in adult trees. The field test was performed twice in 2018 (first field test) and 2019 (second field test). In the first field test, a spray-dried powder of a culture of the JCK-1398 strain (prepared by the same method as in Example 8) was used, and in the second field test, a spray-dried powder of a culture of the JCK-1398 strain was formulated into JCK-1398 20% SC (emulsion) before use. The JCK-1398 20% SC formulation was formulated with a composition of a JCK-1398 spray-dried powder (20.0%), CR-NF 135B (4.5%), xanthan gum (0.03%), a defoamer (0.1%), and water (75.37%).
The spray-dried powder of the culture of the JCK-1398 strain and the JCK-1398 20% SC formulation were diluted 50-fold and 2000-fold, respectively, in an aqueous solution containing 250 μg/ml Tween® 20, and then placed in a sprayer, and each pine tree was foliar-sprayed with about 1 L of each diluted solution. The treatment by foliar spraying was performed twice at an interval of 1 month. One week after each second treatment, each pine tree was inoculated, by trunk injection, with Bursaphelenchus xylophilus at 20,000 nematodes in the first field test and at 10,000 nematodes in the second field test. For a control group, A-Pharm (emamectin benzoate 2.15%, emulsion, Syngenta) was applied at 1 ml per diameter at breast by trunk injection, and the A-Pharm was applied once 1 week before the inoculation with Bursaphelenchus xylophilus. The untreated group was treated with only 250 μg/ml Tween@ 20 without chemical agents in the same manner. The results are shown in FIGS. 7A to 7C and Tables 13 and 14.

[4] = system: Bursaphelenchus xylophilus; experiment: Pine wilt disease control by culture, culture filtrate and cell fraction (Example 6); conditions: samples at OD 0.8, 5 ml foliar spray; EB 20 mg/ml by trunk injection
Experimental: The JCK-1398 strain was cultured by the same method as in Example 4-1 and adjusted to an optical density value of 0.8.
The culture of the JCK-1398 strain was separated into a culture filtrate and a cell fraction by centrifugation (1,300 rpm, 15 min). The precipitated cell fraction was suspended by addition of the same volume of phosphate-buffered saline used before centrifugation. Each pine tree was sufficiently pre-treated with 5 ml of Tween® 20 (250 μg/ml) and then dried for 2 hours, so as to enable each sample (a culture, a culture filtrate, and a cell fraction) to be well adsorbed into leaves. Then, each of the culture, culture filtrate, and cell fraction was dissolved in an aqueous solution containing Tween® 20 (250 μg/ml) to an optical density value of 0.8, and then placed in a fine sprayer and each pine tree was foliar-sprayed with 5 ml of each sample. The nematicidal substance emamectin benzoate as a control group was dissolved in an aqueous solution containing 10% methanol to 20 mg/ml, followed by trunk injection.

In the case of CCn1cc(C(=O)O)c(=O)c2cc3c(cc21)OCO3 [Oxolinic acid, oxolinic acid], the “Control value (%)” value ([1]; Folia spraying) is reported as 27.1%.

For emamectin benzoate [EB], the “Control value (%)” value [2] was 100.0%, the “Disease severity (%)” value ([3]; 1 Month after inoculation) was 0% and the “Disease severity (%)” value ([3]; 2 Months after inoculation) was 1%. For the same molecule, the “Disease severity (%)” value ([3]; 3 Months after inoculation) was 2.5%, the “Disease severity (%)” value ([3]; 4 Months after inoculation) was 7.5% and the “Disease severity (%)” value ([3]; 5 Months after inoculation) was 7.5%. The “Disease severity (%)” value ([3]; 6 Months after inoculation) was 10%, the “Control value (%)” value ([3]; 2018-Year field test, powder 50-fold diluted, 20,000 nematodes) was 86.2% and the “Control value (%)” value ([3]; 2019-Year field test, 20% SC 2000-fold diluted, 10,000 nematodes) was 75%. The “Control value (%)” value [4] was 97.0%.

In the case of CN(C)[C@@H]1C(O)=C(C(N)=O)C(=O)[C@@]2(O)C(O)=C3C(=O)c4c(O)cccc4[C@@](C)(O)[C@H]3[C@H](O)[C@@H]12 [Oxytetracyclin, oxytetracycline], the “Control value (%)” value ([1]; Soil drenching) is reported as 20.8%.
